What was measured:
P2X7R point mutant R206A = biological target: T1, P2X7R point mutant R206A (Homo sapiens, UniProt Q99572, I21V/M24R/N16P/N25R/Q22R/R206A/R20V/S23N/T19I/Y26L); assay: Two-electrode voltage clamp of ATP-evoked currents in Xenopus oocytes; type: cell-based; settings: mean ± S.E.M.
T1 construct: expressed in transfected cells; host or cells: Xenopus laevis oocytes (cRNA injection)
Procedure: (§1) Injected oocytes were stored at 16°C in ND96 buffer [in millimolar concentrations, NaCl 96, KCl 2, CaCl2 1.8, MgCl2 1, sodium pyruvate 5, and HEPES 5 (pH 7.6) supplemented with 50 μg/ml gentamycin and 50 μg/ml tetracycline]. Three to seven days postinjection two-electrode voltage clamp recordings were made from oocytes bathed in divalent-free ND96 buffer (in millimolar concentrations, NaCl 96, KCl 2, sodium pyruvate 5, HEPES 5, and 0.1 flufenamic acid, pH 7.6). Oocytes were voltage clamped at a holding potential of −60 mV with a GeneClamp500B amplifier (Molecular Devices).
(§2) Electrophysiological traces were digitized with a Digidata 1322A and collected using pCLAMP 8.2 software (Molecular Devices, Menlo Park, CA). An EC90 concentration of ATP was used to test antagonist sensitivity for the P2X7-2Nβ and mutant receptors [ATP sensitivity of the chimeras and mutants are reported in [Allsopp et al. (2017)]] to standardize for any changes in ATP sensitivity.
(§3) Inhibition by the antagonists was expressed as the percentage of the peak current amplitude of an EC90 concentration of ATP recorded before the application of antagonist (ATP gave reproducible responses to ATP in the absence of antagonist). […] Any significant differences from the P2X7-2Nβ control were calculated by one-way analysis of variance, followed by Dunnett’s test (using GraphPad Prism 6). […]

other P2XR subtypes = system: other P2XR subtypes; design: method as in North, 2002; Kaczmarek-Hajek et al., 2012; settings: ref North, 2002, Kaczmarek-Hajek et al., 2012; cited from earlier work
[1] = system: P2X7R left flipper point mutant T283A; assay: Two-electrode voltage clamp of ATP-evoked currents in Xenopus oocytes; type: cell-based, human
Procedure: as §1, §2, §3

P2X7R = system: P2X7R; design: method as in North, 2002; Kaczmarek-Hajek et al., 2012; settings: physiologic concentrations of calcium and magnesium; ref North, 2002; Kaczmarek-Hajek et al., 2012; cited from earlier work
[2] = biological target: T2, chimeric P2X7/1 receptor 279–285 (left flipper) (Homo sapiens, UniProt Q99572, DEL279-281/I21V/M24R/N16P/N25R/N284E/Q22R/R20V/S23N/T19I/T282Y/T283E/V285K/Y26L); design: method as in Allsopp et al., 2017; settings: chimera 279–285; ref Allsopp et al., 2017; cited from earlier work
T2 construct: expressed in transfected cells; host or cells: Xenopus laevis oocytes (cRNA injection)
T2 sequence (Q99572 with tags, fused parts or gaps N16P/T19I/R20V/I21V/Q22R/S23N/M24R/N25R/Y26L/DEL279-281/T282Y/T283E/N284E/V285K): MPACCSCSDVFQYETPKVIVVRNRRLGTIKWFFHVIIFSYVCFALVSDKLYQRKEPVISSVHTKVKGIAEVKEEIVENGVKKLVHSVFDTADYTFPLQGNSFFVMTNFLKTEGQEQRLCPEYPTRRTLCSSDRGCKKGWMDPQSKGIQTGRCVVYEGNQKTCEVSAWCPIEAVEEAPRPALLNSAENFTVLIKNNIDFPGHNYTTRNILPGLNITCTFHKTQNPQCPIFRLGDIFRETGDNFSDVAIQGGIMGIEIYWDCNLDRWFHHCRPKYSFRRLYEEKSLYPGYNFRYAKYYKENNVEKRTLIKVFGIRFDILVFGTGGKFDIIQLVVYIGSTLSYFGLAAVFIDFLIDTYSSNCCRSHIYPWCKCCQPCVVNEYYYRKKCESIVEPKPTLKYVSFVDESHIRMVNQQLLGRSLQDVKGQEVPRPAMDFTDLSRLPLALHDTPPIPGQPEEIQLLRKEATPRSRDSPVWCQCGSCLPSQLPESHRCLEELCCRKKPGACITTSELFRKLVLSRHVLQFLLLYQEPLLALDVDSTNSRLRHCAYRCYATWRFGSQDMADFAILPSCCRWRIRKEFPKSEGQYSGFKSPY

P2X7R point mutant K193A = biological target: T3, P2X7R point mutant K193A (Homo sapiens, UniProt Q99572, I21V/K193A/M24R/N16P/N25R/Q22R/R20V/S23N/T19I/Y26L); assay: Two-electrode voltage clamp of ATP-evoked currents in Xenopus oocytes; type: cell-based
T3 construct: expressed in transfected cells; host or cells: Xenopus laevis oocytes (cRNA injection)
Procedure: as §1, §2, §3

[3] = system: P2X7R left flipper point mutant K281A; assay: as above; type: cell-based, human
Procedure: as §1, §2, §3

[4] = system: P2X7R left flipper point mutant N284A; assay: as above; type: cell-based, human
Procedure: (§4) The production of the correct mutations and absence of coding errors was determined by DNA sequencing (Automated ABI Sequencing Service, University of Leicester, UK). cRNA was generated for the mutants and 50 nl (50 ng) was injected into manually defoliculated stage V Xenopus laevis oocytes using an Inject+Matic microinjector (J.A. Gabay, Inject+Matic, Geneva, Switzerland). Injected oocytes were stored at 16°C in ND96 buffer [in millimolar concentrations, NaCl 96, KCl 2, CaCl2 1.8, MgCl2 1, sodium pyruvate 5, and HEPES 5 (pH 7.6) supplemented with 50 μg/ml gentamycin and 50 μg/ml tetracycline]. Three to seven days postinjection two-electrode voltage clamp recordings were made from oocytes bathed in divalent-free ND96 buffer (in millimolar concentrations, NaCl 96, KCl 2, sodium pyruvate 5, HEPES 5, and 0.1 flufenamic acid, pH 7.6). Oocytes were voltage clamped at a holding potential of −60 mV with a GeneClamp500B amplifier (Molecular Devices).
(§5) Inhibition by the antagonists was expressed as the percentage of the peak current amplitude of an EC90 concentration of ATP recorded before the application of antagonist (ATP gave reproducible responses to ATP in the absence of antagonist). Inhibition curves were fitted with the Hill equation (variable slope) using GraphPad Prism 6 (GraphPad Software, San Diego, CA). […]

[5] = system: P2X7R left flipper point mutant T282A; assay: as above; type: cell-based, human
Procedure: as §4, §5

[6] = system: P2X7R left flipper point mutant D280A; assay: as above; type: cell-based, human
Procedure: as §4, §5

[7] = biological target: T4, chimeric P2X7R with left flipper 280–284 of P2X4 (Homo sapiens, UniProt Q99572, D280T/I21V/K281R/M24R/N16P/N25R/N284E/Q22R/R20V/S23N/T19I/T282D/T283V/Y26L); settings: chimera 280–284 of P2X4
T4 sequence (Q99572 1-595 N16P/T19I/R20V/I21V/Q22R/S23N/M24R/N25R/Y26L/D280T/K281R/T282D/T283V/N284E): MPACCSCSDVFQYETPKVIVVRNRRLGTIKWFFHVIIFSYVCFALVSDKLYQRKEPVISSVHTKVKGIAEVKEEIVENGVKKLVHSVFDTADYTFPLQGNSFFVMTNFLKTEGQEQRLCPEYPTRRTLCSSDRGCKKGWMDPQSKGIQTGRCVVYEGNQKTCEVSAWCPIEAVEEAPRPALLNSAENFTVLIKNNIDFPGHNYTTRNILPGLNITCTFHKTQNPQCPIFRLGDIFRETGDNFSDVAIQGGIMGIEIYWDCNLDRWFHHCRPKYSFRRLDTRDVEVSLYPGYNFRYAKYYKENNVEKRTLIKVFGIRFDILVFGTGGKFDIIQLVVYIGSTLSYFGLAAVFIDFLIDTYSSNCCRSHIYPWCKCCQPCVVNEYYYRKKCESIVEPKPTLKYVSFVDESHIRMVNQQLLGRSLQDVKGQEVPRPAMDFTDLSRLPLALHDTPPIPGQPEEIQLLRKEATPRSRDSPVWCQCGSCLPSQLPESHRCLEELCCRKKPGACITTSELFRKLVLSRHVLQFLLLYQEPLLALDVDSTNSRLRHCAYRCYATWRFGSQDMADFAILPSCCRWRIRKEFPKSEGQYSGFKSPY
Procedure: as §4
Inhibition by the antagonists was expressed as the percentage of the peak current amplitude of an EC90 concentration of ATP recorded before the application of antagonist (ATP gave reproducible responses to ATP in the absence of antagonist). Inhibition curves were fitted with the Hill equation (variable slope) using GraphPad Prism 6 (GraphPad Software, San Diego, CA). […] Individual concentration-response curves were generated for individual experiments, and statistical analysis was carried out on the data generated. […] Data are shown as mean ± S.E.M. In all cases n ≥ 3 for all data points.

T3 sequence (Q99572 whole entry N16P/T19I/R20V/I21V/Q22R/S23N/M24R/N25R/Y26L/K193A): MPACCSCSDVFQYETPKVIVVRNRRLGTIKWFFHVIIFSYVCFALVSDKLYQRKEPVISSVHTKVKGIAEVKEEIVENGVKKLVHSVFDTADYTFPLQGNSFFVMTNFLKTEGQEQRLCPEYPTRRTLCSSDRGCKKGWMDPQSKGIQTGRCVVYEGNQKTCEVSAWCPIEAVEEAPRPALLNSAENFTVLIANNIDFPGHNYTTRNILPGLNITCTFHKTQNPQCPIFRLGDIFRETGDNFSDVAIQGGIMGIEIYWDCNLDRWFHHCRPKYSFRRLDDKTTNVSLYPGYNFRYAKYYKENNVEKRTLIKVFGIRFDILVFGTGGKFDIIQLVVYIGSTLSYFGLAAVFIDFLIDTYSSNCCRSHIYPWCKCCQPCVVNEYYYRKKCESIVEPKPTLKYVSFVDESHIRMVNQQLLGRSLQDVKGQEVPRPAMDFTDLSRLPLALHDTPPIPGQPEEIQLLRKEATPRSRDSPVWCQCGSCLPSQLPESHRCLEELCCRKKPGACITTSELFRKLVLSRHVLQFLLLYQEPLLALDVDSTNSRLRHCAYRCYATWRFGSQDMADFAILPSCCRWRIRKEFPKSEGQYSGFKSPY
T1 sequence (Q99572 whole entry N16P/T19I/R20V/I21V/Q22R/S23N/M24R/N25R/Y26L/R206A): as the sequence (Q99572 whole entry N16P/T19I/R20V/I21V/Q22R/S23N/M24R/N25R/Y26L/K193A) above, with A193K, R206A counted along it

Question: What does the source list for `Nc1ncnc2c1ncn2[C@@H]1O[C@H](COP(=O)(O)OP(=O)(O)OP(=O)(O)O)[C@@H](O)[C@H]1O` [ATP]?
Answer: ATP sensitivity pEC50 (P2X7R point mutant R206A): 4.33 ± 0.06; EC50 (other P2XR subtypes): 1 to 30 µM; fold decrease in ATP sensitivity [1]: 3.4 fold; EC50 (P2X7R): 300 to 1000 µM; fold increase in sensitivity to ATP [2]: ~30 fold; amplitude of ATP-evoked responses (P2X7R point mutant K193A): < 100 nA; fold decrease in ATP sensitivity [3]: 2 fold; effect on ATP sensitivity [4]: no effect; effect on ATP sensitivity [5]: no effect; fold increase in ATP potency [6]: 15 fold; fold increase in ATP sensitivity/potency [7]: ~15 fold

Source: paper PMC5896373 (Molecular Pharmacology, 2018)
